Measured values published in US11926621B1, “N′-(2-(5-(4-chlorophenyl)-1,3,4-oxadiazol-2-ylthio)acetoxy)benzo[d][1,3]dioxole-5-carboximidamide as an antimicrobial compound” (KING FAISAL UNIVERSITY, priority 2023, dated 2024).

Columns and labels:
Type in all cases: cell-based
Bacillus cereus = assay: Agar plate disc-diffusion, antibacterial inhibition zone; conditions: nutrient agar, 37° C., 48 h
Method: The agar plate disc-diffusion method was applied. […] The discs were then placed onto the surface of agar plates (nutrient agar for bacteria and Sabouraud's dextrose agar for fungi) seeded with the test organism. Each plate contained 15 mL of the agar medium, previously seeded with 0.2 mL of the broth culture of each organism pregrown for 18 hours. The plates were incubated at 37° C. for 48 h, and 72 h for fungi. The inhibition zones were measured in mm. Discs impregnated with DMSO were used as a control, and its inhibition zone was subtracted from the tested compound actual inhibition zone.
(§1) The results of the antimicrobial testing can be observed in Tables 1 and 2, below, using ciprofloxacin as a reference.

Escherichia coli = assay: as above; conditions: nutrient agar, 37° C., 48 h
Method: (§2) The agar plate disc-diffusion method was applied. Sterilized filter papers (6 mm in diameter) were wetted with 10 μL of a solution of N′-(2-(5-(4-chlorophenyl)-1,3,4-oxadiazol-2-ylthio)acetoxy)benzo[d][1,3]dioxole-5-carboximidamide (3) to be tested, […], and the discs were allowed to air dry. The discs were then placed onto the surface of agar plates (nutrient agar for bacteria and Sabouraud's dextrose agar for fungi) seeded with the test organism. Each plate contained 15 mL of the agar medium, previously seeded with 0.2 mL of the broth culture of each organism pregrown for 18 hours. The plates were incubated at 37° C. for 48 h, and 72 h for fungi. The inhibition zones were measured in mm. Discs impregnated with DMSO were used as a control, and its inhibition zone was subtracted from the tested compound actual inhibition zone.
as §1

Pseudomonas aeruginosa = assay: as above; conditions: nutrient agar, 37° C., 48 h
Method: as §2, §1

Staphylococcus aureus = assay: as above; conditions: nutrient agar, 37° C., 48 h
Method: as §2, §1

Aspergillus flavus = assay: Agar plate disc-diffusion, antifungal inhibition zone; conditions: Sabouraud's dextrose agar, 72 h
Method: The agar plate disc-diffusion method was applied. Sterilized filter papers (6 mm in diameter) were wetted with 10 μL of a solution of N′-(2-(5-(4-chlorophenyl)-1,3,4-oxadiazol-2-ylthio)acetoxy)benzo[d][1,3]dioxole-5-carboximidamide (3) to be tested, containing 10 mg/mL in DMSO, and the discs were allowed to air dry. The discs were then placed onto the surface of agar plates (nutrient agar for bacteria and Sabouraud's dextrose agar for fungi) seeded with the test organism. Each plate contained 15 mL of the agar medium, previously seeded with 0.2 mL of the broth culture of each organism pregrown for 18 hours. The plates were incubated at 37° C. for 48 h, and 72 h for fungi. The inhibition zones were measured in mm. Discs impregnated with DMSO were used as a control, and its inhibition zone was subtracted from the tested compound actual inhibition zone.
as §1

[1] = test system: Chrysosporium keratinophilum; assay: as above; conditions: Sabouraud's dextrose agar, 72 h
Method: as §2, §1

[2] = A = concentration of comp. = 10,000 μL
[3] = B = concentration of comp. = 30.000 μL
[4] = C = concentration of comp. = 50,000 μL

SMILES: N/C(=N\OC(=O)CSc1nnc(-c2ccc(Cl)cc2)o1)c1ccc2c(c1)OCO2 [Compound 3, N′-(2-(5-(4-chlorophenyl)-1,3,4-oxadiazol-2-ylthio)acetoxy)benzo[d][1,3]dioxole-5-carboximidamide]
- inhibition zone, Bacillus Cereus, A (Bacillus cereus; [2]): 23 mm
- inhibition zone, Bacillus Cereus, B (Bacillus cereus; [3]): 28 mm
- inhibition zone, Bacillus Cereus, C (Bacillus cereus; [4]): 37 mm
- inhibition zone, Escherichia coli, A (Escherichia coli; [2]): 25 mm
- inhibition zone, Escherichia coli, B (Escherichia coli; [3]): 30 mm
- inhibition zone, Escherichia coli, C (Escherichia coli; [4]): 43 mm
- inhibition zone, Pseudomonas aeruginosa, A (Pseudomonas aeruginosa; [2]): 22 mm
- inhibition zone, Pseudomonas aeruginosa, B (Pseudomonas aeruginosa; [3]): 25 mm
- inhibition zone, Pseudomonas aeruginosa, C (Pseudomonas aeruginosa; [4]): 32 mm
- inhibition zone, Staphylococcus aureus, A (Staphylococcus aureus; [2]): 25 mm
- inhibition zone, Staphylococcus aureus, B (Staphylococcus aureus; [3]): 31 mm
- inhibition zone, Staphylococcus aureus, C (Staphylococcus aureus; [4]): 40 mm
- inhibition zone, Aspergillus flavus, A (Aspergillus flavus; [2]): 25 mm
- inhibition zone, Aspergillus flavus, B (Aspergillus flavus; [3]): 28 mm
- inhibition zone, Aspergillus flavus, C (Aspergillus flavus; [4]): 38 mm
- inhibition zone, Chrysosporium keratinophilum, A [1, 2]: 24 mm
- inhibition zone, Chrysosporium keratinophilum, B [1, 3]: 29 mm
- inhibition zone, Chrysosporium keratinophilum, C [1, 4]: 45 mm
